Patent US20070122907A1, “Orchid culturing method” (priority 2005, published 2007)

Assays:
Phalaenopsis plants = experiment: Induction of spiking in potted Phalaenopsis by spraying, number of inflorescences per plant; format: in vivo; details: spray 1000 ppm, 0.1% Zipper, 1% DMSO, 100 plants
Description: Growing conditions for the plants throughout the whole greenhouse stay are the same, except for the above discussed variations in light and temperature. Preferably this means that the plants are potted in pots with a diameter of 10-20 cm, with a growing medium of bark, coconut, Styrofoam, sphagnum moss and turf. Preferably they are stored on table-high racks, which facilitates handling. Light intensity on the surface of the pot is 3000-15000 lux (see Schapendonlk, A.H.C.M., “Belichting Phalaenopsis”, PT-Project 12170, productverslag, Productschap Tuinbouw). Normal daylight is maintained, but preferably in wintertime a lights on:lights off regime of 14:10 hours is used. Watering is preferably automated and is taken care of by a sprinkler system or any other spraying system, an ebb and flow system, via gutters running along the racks, or by submerging the pots in a water basin Nutrients and/or fertiliser are added to the water on a regular basis (EC 0,5-2, NPK 20-20-20). See also ook “Cultivation Guidelines Phalaenopsis Pot Plants, supra.
In June 2004 three groups of Phalaenopsis plants have been induced 6 months after potting. For testing 100 plants were treated and 100 non-treated controls were used per variety. Both groups of plants were cultured as described above. […] The results in Table 1 show the number of inflorescences per plant for the different test groups.

Dendrobium = details: application to the mature pseudobulbs, not the developing ones; cited from earlier work
Phalaenopsis = details: cited from earlier work

c1ccc(CNc2ncnc3nc[nH]c23)cc1 [6-BA-P, 6-benzylaminopurine]
Average stemcount treated (Phalaenopsis plants; variety Anthura Malaga, untreated 1.23): 3.61 | Average stemcount treated (Phalaenopsis plants; variety Brother John Red Delight, untreated 1.13): 3.20 | Average stemcount treated (Phalaenopsis plants; variety Dutch Lady, untreated 1.58): 3.84 | Average stemcount treated (Phalaenopsis plants; variety Golden Treasure, untreated 1.44): 2.97 | Average stemcount treated (Phalaenopsis plants; variety Lippe Flair 344, untreated 1.32): 3.38 | Average stemcount treated (Phalaenopsis plants; variety Maliby Leopard, untreated 1.51): 3.12 | triggering of spiking (Dendrobium): shown to trigger spiking | induction of off-season spiking (Phalaenopsis): unable to induce off-season spiking
